Results as given in patent US12390470B2, “1-methylxanthine-based bioactive composition and method of use thereof” (Ingenious Ingredients, LP, priority 2021, dated 2025).

Tests used:
[1] = Organ weight (liver, heart), Example 3; type: in vivo; settings: mice, 28 days
Experimental: (§1) Twenty-four 8-week-old male Swiss Albino mice were housed in an animal room at a constant temperature (22±3° C.) and humidity (30%-70%) under a 12:12 h light-dark cycle with standard laboratory diet (Purina 5L79, Rat and Mouse 18% protein; PMI Nutrition International, Brentwood, MO, USA). Distilled water was provided ad libitum. All animal experiments were reviewed and approved by the Institutional Animal Ethical Committee (IAEC) of Radiant Research Services Pvt. Ltd (Bangalore, India). All research was conducted in accordance with the guidelines of the committee for the purpose of control and supervision of experiments on animals.
(§2) After one week of acclimation, the animals were randomly divided by body weight into three groups (n=8 per group in each test) for oral treatment once a day, at approximately same time each day (±1 hour), for 28 consecutive days: (1) vehicle control or (2) 1-methylxanthine or (3) 1-methylxanthine plus paraxanthine. The dose administered to the mice was calculated using US Food and Drug Administration for human equivalence doses (HED), assuming a human weight of 60 kg. […] Food intake was monitored daily while water intake was ad libitum.

participants [2] = test: Systolic blood pressure, crossover vs caffeine; type: in vivo, human
Text: All supplements were orally ingested with 8 fluid ounces of cold tap water.

male Swiss Albino mice = test: Forelimb grip strength test; type: in vivo
Experimental: as §1
as §2, with “kg. The following HED was used in this study: 100 mg 1-methylxanthine (Ingenious Ingredients, L.P Lewisville, TX, USA; mouse dose: 20.5 mg/kg bw/day), or 100 mg 1-methylxanthine (Ingenious Ingredients, L.P Lewisville, TX, USA; mouse dose: 20.5 mg/kg bw/day) plus 100 mg paraxanthine (ENFINITY™, Ingenious Ingredients, L.P Lewisville, TX, USA; mouse dose: 20.5 mg/kg bw/day). 0.5% Carboxy Methyl Cellulose sodium was used as vehicle and the test item formulations were prepared daily.” for “kg.”, “libitum. BW was recorded weekly. […]” for “libitum.”
The forelimb grip strength was measured on day 0 and day 28 by using a stainless-steel grill to assess muscle strength (Orchid Scientific & Innovative India Pvt Ltd, India). Grip strength was measured one hour after treatment. […] Each animal performed three independent trials and the mean of the three trials was calculated and recorded.

participants [3] = test: Anxiety by Visual Analog Scale; type: in vivo, human; parameters: Anxiety (Visual Analog Scale) / Anxiety (VAS) MEAN (30-180) / Anxiety (VAS) Δ vs. CA: scale not given here
Experimental: All supplements were orally ingested with 8 fluid ounces of cold tap water. Anxiety was measured by Visual Analog Scale (VAS) at baseline, 30, 60, 90, 120 and 180 minutes after ingestion.

[4] = Person one, time 0, 200 mg oral
[5] = Person two, time 0, 200 mg oral

Cn1c(=O)[nH]c2nc[nH]c2c1=O [1-methylxanthine, 1-Methyl-3H-purine-2,6-dione]
Heart weight [1]: 188.50 ± 3.12 mg
Liver weight [1]: 1850.88 ± 39.96 mg
systolic blood pressure change from baseline (participants [2]; 200 mg oral): did not increase
systolic blood pressure reduced in comparison to CA (participants [2]; 200 mg oral): 6.1%
Systolic Blood Pressure MEAN (30-180) (participants [2]; Average): 117.2 mm Hg
Systolic Blood Pressure MEAN (30-180) (participants [2]; Person one): 123.6 mm Hg
Systolic Blood Pressure Mean Δ from 0 (participants [2]; Person one): −1.6 mm Hg
Systolic Blood Pressure Δ vs. CA (participants [2]; Person one): −6.4 mm Hg
Systolic Blood Pressure (participants [2]; Person one, 30 min): 116 mm Hg
Systolic Blood Pressure (participants [2]; Person one, 60 min): 136 mm Hg
Systolic Blood Pressure (participants [2]; Person one, 90 min): 108 mm Hg
Systolic Blood Pressure (participants [2]; Person one, 120 min): 116 mm Hg
Systolic Blood Pressure (participants [2]; Person one, 180 min): 142 mm Hg
Systolic Blood Pressure (participants [2]; [4]): 125 mm Hg
Systolic Blood Pressure MEAN (30-180) (participants [2]; Person two): 110.8 mm Hg
Systolic Blood Pressure Mean Δ from 0 (participants [2]; Person two): −2.2 mm Hg
Systolic Blood Pressure Δ vs. CA (participants [2]; Person two): −9.6 mm Hg
Systolic Blood Pressure (participants [2]; Person two, 30 min): 125 mm Hg
Systolic Blood Pressure (participants [2]; Person two, 60 min): 110 mm Hg
Systolic Blood Pressure (participants [2]; Person two, 90 min): 113 mm Hg
Systolic Blood Pressure (participants [2]; Person two, 120 min): 114 mm Hg
Systolic Blood Pressure (participants [2]; Person two, 180 min): 92 mm Hg
Systolic Blood Pressure (participants [2]; [5]): 113 mm Hg
Forelimb grip strength (male Swiss Albino mice; baseline): 91.1±1.3 gf
changes in strength greater than control (male Swiss Albino mice; baseline to day 28): 15.9%
Forelimb grip strength (male Swiss Albino mice; day 28, oral 20.5 mg/kg bw/day each, 28 days, with exercise training): 126.9±6.0 gf
lower feelings of anxiety in comparison to CA (participants [3]; 200 mg oral): 21%
Anxiety (VAS) MEAN (30-180) (participants [3]; Average): 58.8
Anxiety (VAS) Mean Δ from 0 (participants [3]; Average): +1.3
Anxiety (VAS) MEAN (30-180) (participants [3]; Person one): 48.6
Anxiety (VAS) Mean Δ from 0 (participants [3]; Person one): −1.4
Anxiety (VAS) Δ vs. CA (participants [3]; Person one): −26.0
Anxiety (Visual Analog Scale) (participants [3]; Person one, 30 min): 51
Anxiety (Visual Analog Scale) (participants [3]; Person one, 60 min): 40
Anxiety (Visual Analog Scale) (participants [3]; Person one, 90 min): 40
Anxiety (Visual Analog Scale) (participants [3]; Person one, 120 min): 51
Anxiety (Visual Analog Scale) (participants [3]; Person one, 180 min): 61
Anxiety (Visual Analog Scale) (participants [3]; [4]): 50
Anxiety (VAS) MEAN (30-180) (participants [3]; Person two): 69.0
Anxiety (VAS) Mean Δ from 0 (participants [3]; Person two): +4.0
Anxiety (VAS) Δ vs. CA (participants [3]; Person two): −5.2
Anxiety (Visual Analog Scale) (participants [3]; Person two, 30 min): 65
Anxiety (Visual Analog Scale) (participants [3]; Person two, 60 min): 65
Anxiety (Visual Analog Scale) (participants [3]; Person two, 90 min): 65
Anxiety (Visual Analog Scale) (participants [3]; Person two, 120 min): 75
Anxiety (Visual Analog Scale) (participants [3]; Person two, 180 min): 75
Anxiety (Visual Analog Scale) (participants [3]; [5]): 65
